Test results: US4547496A, “Antiulcer [1] benzepino[3,4-b]pyridine and compositions” (Kyowa Hakko Kogyo Co., Ltd., priority 1983, dated 1985)

Legend:
[1] = system: Male Donryu-strain rats; experiment: Test for antiulcer activity (restraint and water immersion stress ulcer, lesion index of glandular stomach); assay type: in vivo; conditions: Rattus norvegicus, water immersion at 23±1° C. for 7 hours, read-out: Ulcer-inhibition Rate; for inhibition in vivo at 30 mg/kg: po: 30 mg/kg; for inhibition in vivo at 100 mg/kg: po: 100 mg/kg
Protocol: Test for antiulcer activity
Male Donryu-strain rats weighing 190 to 210 g were starved for 17 hours prior to the test.
Immediately, after an oral administration of the present compounds (30 mg/kg or 100 mg/kg), the rats were immobilized in the stress cage devised by Takagi et al. [Jap. J. Pharmacol., 18, 9 (1968)]. The cage was then immersed vertically in a water bath at 23±1° C. for 7 hours to the height of xiphoid process.
Each rat was then killed with carbon dioxide gas and its stomach was removed. The lengths of the lesions developed on the glandular stomach were summed to give a lesion index for each rat.
Four or five rats were used for each group. The test compounds were dissolved in saline or dissolved or suspended in saline with a suitable amount of polyethylene glycol-400 added or not added. The ulcer-inhibitionrate of each compound was calculated from the following formula by comparing the lesion index of the test group with that of the control group [administered with only the solvent (saline with polyethylene glycol-400 added or not added)]. [formula]

[2] = system: male dd-strain mice; experiment: Test for acute toxicity (minimum lethal dose, 7-day mortality); assay type: in vivo; conditions: mortality observed for 7 days; for Acute MLD ip: intraperitoneal
Protocol: Groups of 5 male dd-strain mice weighing 19 to 21 g were used. The present compounds were administered either orally (0.3 mg/g) or intraperitoneally (0.1 mg/g).
The MLD (minimum lethal dose) was determined by observing the mortality for 7 days after the administration.

Structure (SMILES)	inhibition in vivo at 30 mg/kg [1] [%]	Acute MLD ip [2] [mg/kg]	Acute MLD po [2] [mg/kg]	inhibition in vivo at 100 mg/kg [1] [%]
CCN(CC)CCNC1c2ccccc2OCc2ncccc21 (stereo not drawn) [Compound 1, 5-[2-(Diethylamino)ethyl]amino-5,11-dihydro[1]benzoxepino[3,4-b]pyridine]	85	> 100	> 300	
CN(C)CCNC1c2ccccc2OCc2ncccc21 (stereo not drawn) [Compound 5, 5-[2-(Dimethylamino)ethyl]amino-5,11-dihydro[1]benzoxepino[3,4-b]pyridine]	78	> 100	> 300	
CCN(CC)CCCNC1c2ccccc2OCc2ncccc21 (stereo not drawn) [Compound 7, 5-[3-(Diethylamino)propyl]amino-5,11-dihydro[1]benzoxepino[3,4-b]pyridine]	55	> 100	> 300	
c1ccc2c(c1)OCc1ncccc1C2NCCN1CCCC1 (stereo not drawn) [Compound 13, 5-[2-(1-Pyrrolidinyl)ethyl]amino-5,11-dihydro[1]benzoxepino[3,4-b]pyridine]	72	> 100	> 300	
c1ccc2c(c1)OCc1ncccc1C2NCCN1CCOCC1 (stereo not drawn) [Compound 15, 5-[2-(Morpholino)ethyl]amino-5,11-dihydro[1]benzoxepino[3,4-b]pyridine]	73	> 100	> 300	
CN1CCN(C2c3ccccc3OCc3ncccc32)CC1 (stereo not drawn) [Compound 20, 5-[1-(4-Methyl)piperazinyl]-5,11-dihydro[1]benzoxepino[3,4-b]pyridine]	67	> 100	> 300	
CC(C)N(CCNC1c2ccccc2OCc2ncccc21)C(C)C (stereo not drawn) [Compound 24, 5-[2-(Diisopropylamino)ethyl]amino-5,11-dihydro[1]benzoxepino[3,4-b]pyridine]	88	> 100	> 300	
CC(C)N(CC(=O)NC1c2ccccc2OCc2ncccc21)C(C)C (stereo not drawn) [Compound 27, 5,11-Dihydro-5-[(N,N--diisopropylamino)acetyl]amino[1]benzoxepino[3,4-b]pyridine]		> 100	> 300	79
CCN(CC)CC(=O)NC1c2ccccc2OCc2ncccc21 (stereo not drawn) [Compound 28, 5-[(N,N--diethylamino)acetyl]amino-5,11-dihydro[1]benzoxepino[3,4-b]pyridine]		> 100	> 300	98
CN1CCN(CC(=O)NC2c3ccccc3OCc3ncccc32)CC1 (stereo not drawn) [Compound 29, 5,11-Dihydro-5-[(4-methyl-1-piperazinyl)acetyl]amino[1]benzoxepino[3,4-b]pyridine]		> 100	> 300	64
CNC(=O)N(C)C1c2ccccc2OCc2ncccc21 (stereo not drawn) [Compound 31, 1-(5,11-Dihydro[1]benzoxepino[3,4-b]pyridin-5-yl)1,3-dimethylurea]		> 100	> 300	93
CCNC(=O)N(CC)C1c2ccccc2OCc2ncccc21 (stereo not drawn) [Compound 36, 1-(5,11-Dihydro[1]benzoxepino[3,4-b]pyridin-5-yl)1,3-diethylurea]		> 100	> 300	81
